Measured values reported in ChEMBL document CHEMBL3045821, “Microwave-assisted synthesis of 3-indolyl substituted 4H-chromenes catalyzed by DMAP and their antimicrobial activity” (2012).
Converted amounts (≈) assume the structure as drawn.

Experiments:
Assay type in all cases: functional
Candida albicans = test: Antifungal activity against Candida albicans MTCC 227 after 24 to 48 hr by broth microdilution method
Aspergillus fumigatus = test: Antifungal activity against Aspergillus fumigatus MTCC 3008 after 24 to 48 hr by broth microdilution method
Bacillus subtilis = test: Antibacterial activity against Bacillus subtilis MTCC 441 after 24 to 48 hr by broth microdilution method
Escherichia coli = test: Antibacterial activity against Escherichia coli MTCC 443 after 24 to 48 hr by broth microdilution method
Clostridium tetani = test: Antibacterial activity against Clostridium tetani MTCC 449 after 24 to 48 hr by broth microdilution method
Salmonella typhi = test: Antibacterial activity against Salmonella enterica subsp. enterica serovar Typhi MTCC 98 after 24 to 48 hr by broth microdilution method
Vibrio cholerae = test: Antibacterial activity against Vibrio cholerae MTCC 3906 after 24 to 48 hr by broth microdilution method
Streptococcus pneumoniae = test: Antibacterial activity against Streptococcus pneumoniae MTCC 1936 after 24 to 48 hr by broth microdilution method

| Molecule | MIC (Candida albicans) [µg/mL] | MIC (Aspergillus fumigatus) [µg/mL] | MIC (Bacillus subtilis) [µg/mL] | MIC (Escherichia coli) [µg/mL] | MIC (Clostridium tetani) [µg/mL] | MIC (Salmonella typhi) [µg/mL] | MIC (Vibrio cholerae) [µg/mL] | MIC (Streptococcus pneumoniae) [µg/mL] |
| --- | --- | --- | --- | --- | --- | --- | --- | --- |
| NYSTATIN | 100 | 100 | – | – | – | – | – | – |
| COc1ccc(-c2[nH]c3ccccc3c2C2C(C#N)=C(N)OC3=C2C(=O)CCC3)cc1 (configuration not stated) | 500 (≈ 1220 µM) | 1000 (≈ 2430 µM) | 250 (≈ 608 µM) | 100 (≈ 243 µM) | 100 (≈ 243 µM) | 200 (≈ 486 µM) | 200 (≈ 486 µM) | 200 (≈ 486 µM) |
| CC1(C)CC(=O)C2=C(C1)OC(N)=C(C#N)C2c1c(-c2ccc(Br)cc2)[nH]c2ccccc12 (configuration not stated) | 1000 (≈ 2050 µM) | 200 (≈ 410 µM) | 200 (≈ 410 µM) | 200 (≈ 410 µM) | 500 (≈ 1020 µM) | 250 (≈ 512 µM) | 500 (≈ 1020 µM) | 125 (≈ 256 µM) |
| CC1(C)S[C@@H]2[C@H](NC(=O)[C@H](N)c3ccccc3)C(=O)N2[C@H]1C(=O)O [AMPICILLIN] | – | – | 250 (≈ 715 µM) | 100 (≈ 286 µM) | 250 (≈ 715 µM) | 100 (≈ 286 µM) | 100 (≈ 286 µM) | 100 (≈ 286 µM) |
| CC1(C)CC(=O)C2=C(C1)OC(N)=C(C#N)C2c1c(-c2ccc(S(C)(=O)=O)cc2)[nH]c2ccccc12 (configuration not stated) | 250 (≈ 513 µM) | 500 (≈ 1030 µM) | 250 (≈ 513 µM) | 100 (≈ 205 µM) | 125 (≈ 256 µM) | 200 (≈ 410 µM) | 500 (≈ 1030 µM) | 500 (≈ 1030 µM) |
| CS(=O)(=O)c1ccc(-c2[nH]c3ccccc3c2C2C(C#N)=C(N)OC3=C2C(=O)CCC3)cc1 (configuration not stated) | 1000 (≈ 2180 µM) | 1000 (≈ 2180 µM) | 500 (≈ 1090 µM) | 100 (≈ 218 µM) | 100 (≈ 218 µM) | 100 (≈ 218 µM) | 500 (≈ 1090 µM) | 500 (≈ 1090 µM) |
| CC1(C)CC(=O)C2=C(C1)OC(N)=C(C#N)C2c1c(-c2ccc([N+](=O)[O-])cc2)[nH]c2ccccc12 (configuration not stated) | 200 (≈ 440 µM) | 250 (≈ 550 µM) | 500 (≈ 1100 µM) | 250 (≈ 550 µM) | 200 (≈ 440 µM) | 500 (≈ 1100 µM) | 250 (≈ 550 µM) | 250 (≈ 550 µM) |
| CC1(C)CC(=O)C2=C(C1)OC(N)=C(C#N)C2c1c(-c2ccccc2)[nH]c2ccccc12 (configuration not stated) | 1000 (≈ 2440 µM) | 500 (≈ 1220 µM) | 200 (≈ 488 µM) | 500 (≈ 1220 µM) | 200 (≈ 488 µM) | 500 (≈ 1220 µM) | 200 (≈ 488 µM) | 200 (≈ 488 µM) |
| N#CC1=C(N)OC2=C(C(=O)CCC2)C1c1c(-c2ccc(Cl)cc2)[nH]c2ccccc12 (configuration not stated) | > 1000 | 1000 (≈ 2400 µM) | 200 (≈ 481 µM) | 100 (≈ 240 µM) | 500 (≈ 1200 µM) | 125 (≈ 301 µM) | 100 (≈ 240 µM) | 200 (≈ 481 µM) |
| CC1(C)CC(=O)C2=C(C1)OC(N)=C(C#N)C2c1c(-c2ccc(F)cc2)[nH]c2ccccc12 (configuration not stated) | 1000 (≈ 2340 µM) | 250 (≈ 585 µM) | 100 (≈ 234 µM) | 200 (≈ 468 µM) | 200 (≈ 468 µM) | 250 (≈ 585 µM) | 500 (≈ 1170 µM) | 200 (≈ 468 µM) |
